Test results published in patent US20230049952A1, “METHODS AND COMPOUNDS FOR RESTORING MUTANT P53 FUNCTION” (PMV Pharmaceuticals, Inc., priority 2020, published 2023).

Test system: NF-κB signaling pathway in MT373 tumors
Assay: MT373 syngeneic sarcoma model: mouse NF-κB signaling pathway profiling panel
Format: in vivo
Settings: for Ccl2 mRNA downregulation / Csf2 mRNA downregulation / Egfr mRNA downregulation / Fas1 mRNA downregulation / Ifnγ mRNA downregulation / Il1α mRNA downregulation / Il1β mRNA downregulation: 150 mg/kg BID×1

In the case of `CCn1c(C#CCNc2ccccc2)cc2cc(CNC3CCN(C)CC3)ccc21` [Compound 1, 1-Anilino-3-{1-ethyl-5-[(1-methyl-4-piperidylamino)methyl]-1H-indol-2-yl}-2-propyne], the “Ccl5 fold increase over or percent reduction vs vehicle control” value (150 mg/kg BIDx1, […]) is reported as 2.85 ± 0.20 fold or %, the “Cd27 fold increase over or percent reduction vs vehicle control” value (150 mg/kg BIDx1, […]) is reported as 1.48 ± 0.16 fold or % and the “Cd40 fold increase over or percent reduction vs vehicle control” value (150 mg/kg BIDx1, […]) is reported as 1.78 ± 0.80 fold or %. The “Cflar fold increase over or percent reduction vs vehicle control” value (150 mg/kg BIDx1, […]) was 6.22 ± 11.55 fold or %, the “Chuk fold increase over or percent reduction vs vehicle control” value (150 mg/kg BIDx1, […]) was 1.16 ± 0.33 fold or % and the “Crebbp fold increase over or percent reduction vs vehicle control” value (150 mg/kg BIDx1, […]) was 16.61 ± 5.43 fold or %. The “Csf1 fold increase over or percent reduction vs vehicle control” value (150 mg/kg BIDx1, […]) was 1.10 ± 0.10 fold or %, the “Csf2 fold increase over or percent reduction vs vehicle control” value (150 mg/kg BIDx1, […]) was 2.00 ± 1.31 fold or % and the “Csf3 fold increase over or percent reduction vs vehicle control” value (150 mg/kg BIDx1, […]) was 52.98 ± 22.53 fold or %. The “Egfr fold increase over or percent reduction vs vehicle control” value (150 mg/kg BIDx1, […]) was 41.90 ± 8.16 fold or %, the “Egr1 fold increase over or percent reduction vs vehicle control” value (150 mg/kg BIDx1, […]) was 54.35 ± 3.91 fold or % and the “Eif2ak2 fold increase over or percent reduction vs vehicle control” value (150 mg/kg BIDx1, […]) was 18.72 ± 7.21 fold or %. For the same compound, the “Elk1 fold increase over or percent reduction vs vehicle control” value (150 mg/kg BIDx1, […]) was 7.14 ± 8.40 fold or %, the “F2r fold increase over or percent reduction vs vehicle control” value (150 mg/kg BIDx1, […]) was 1.01 ± 0.12 fold or % and the “Fadd fold increase over or percent reduction vs vehicle control” value (150 mg/kg BIDx1, […]) was 5.68 ± 5.62 fold or %. For the same compound, the “Fasl fold increase over or percent reduction vs vehicle control” value (150 mg/kg BIDx1, […]) was 3.17 ± 0.74 fold or %, the “Fos fold increase over or percent reduction vs vehicle control” value (150 mg/kg BIDx1, […]) was 44.44 ± 21.93 fold or % and the “Hmox1 fold increase over or percent reduction vs vehicle control” value (150 mg/kg BIDx1, […]) was 40.88 ± 33.56 fold or %. For the same compound, the “Icam1 fold increase over or percent reduction vs vehicle control” value (150 mg/kg BIDx1, […]) was 1.41 ± 0.25 fold or %, the “Ifng fold increase over or percent reduction vs vehicle control” value (150 mg/kg BIDx1, […]) was 3.22 ± 0.99 fold or % and the “Ikbkb fold increase over or percent reduction vs vehicle control” value (150 mg/kg BIDx1, […]) was 6.97 ± 8.47 fold or %. The “Ikbke fold increase over or percent reduction vs vehicle control” value (150 mg/kg BIDx1, […]) was 0.36 ± 10.26 fold or %, the “Ikbkg fold increase over or percent reduction vs vehicle control” value (150 mg/kg BIDx1, […]) was 9.50 ± 15.53 fold or % and the “Il1a fold increase over or percent reduction vs vehicle control” value (150 mg/kg BIDx1, […]) was 1.02 ± 0.18 fold or %. For the same compound, the “Il1b fold increase over or percent reduction vs vehicle control” value (150 mg/kg BIDx1, […]) was 1.39 ± 0.34 fold or %, the “Il1r1 fold increase over or percent reduction vs vehicle control” value (150 mg/kg BIDx1, […]) was 28.14 ± 8.59 fold or % and the “Il10 fold increase over or percent reduction vs vehicle control” value (150 mg/kg BIDx1, […]) was 34.39 ± 10.47 fold or %. For the same compound, the “Irak1 fold increase over or percent reduction vs vehicle control” value (150 mg/kg BIDx1, […]) was 5.30 ± 10.81 fold or %, the “Irak2 fold increase over or percent reduction vs vehicle control” value (150 mg/kg BIDx1, […]) was 1.05 ± 0.12 fold or % and the “Irf1 fold increase over or percent reduction vs vehicle control” value (150 mg/kg BIDx1, […]) was 1.11 ± 0.14 fold or %. The “Jun fold increase over or percent reduction vs vehicle control” value (150 mg/kg BIDx1, […]) was 26.73 ± 6.02 fold or %, the “Lta fold increase over or percent reduction vs vehicle control” value (150 mg/kg BIDx1, […]) was 1.87 ± 0.82 fold or % and the “Ltbr fold increase over or percent reduction vs vehicle control” value (150 mg/kg BIDx1, […]) was 1.13 ± 0.10 fold or %. The “Map3k1 fold increase over or percent reduction vs vehicle control” value (150 mg/kg BIDx1, […]) was 16.75 ± 8.45 fold or %, the “Mapk3 fold increase over or percent reduction vs vehicle control” value (150 mg/kg BIDx1, […]) was 19.93 ± 6.52 fold or % and the “Myd88 fold increase over or percent reduction vs vehicle control” value (150 mg/kg BIDx1, […]) was 9.52 ± 8.80 fold or %. The “Nfkb1 fold increase over or percent reduction vs vehicle control” value (150 mg/kg BIDx1, […]) was 5.72 ± 2.88 fold or %, the “Nfkb2 fold increase over or percent reduction vs vehicle control” value (150 mg/kg BIDx1, […]) was 1.01 ± 0.10 fold or % and the “Nfkbia fold increase over or percent reduction vs vehicle control” value (150 mg/kg BIDx1, […]) was 8.21 ± 16.85 fold or %. For the same compound, the “Nod1 fold increase over or percent reduction vs vehicle control” value (150 mg/kg BIDx1, […]) was 0.36 ± 14.65 fold or %, the “Raf1 fold increase over or percent reduction vs vehicle control” value (150 mg/kg BIDx1, […]) was 7.66 ± 4.64 fold or % and the “Rel fold increase over or percent reduction vs vehicle control” value (150 mg/kg BIDx1, […]) was 4.74 ± 2.26 fold or %. For the same compound, the “Rela fold increase over or percent reduction vs vehicle control” value (150 mg/kg BIDx1, […]) was 20.75 ± 9.37 fold or %, the “Relb fold increase over or percent reduction vs vehicle control” value (150 mg/kg BIDx1, […]) was 14.05 ± 6.91 fold or % and the “Ripk1 fold increase over or percent reduction vs vehicle control” value (150 mg/kg BIDx1, […]) was 2.92 ± 15.10 fold or %. The “Ripk2 fold increase over or percent reduction vs vehicle control” value (150 mg/kg BIDx1, […]) was 1.11 ± 0.29 fold or %, the “Slc20a1 fold increase over or percent reduction vs vehicle control” value (150 mg/kg BIDx1, […]) was 20.53 ± 3.61 fold or % and the “Smad3 fold increase over or percent reduction vs vehicle control” value (150 mg/kg BIDx1, […]) was 0.01 ± 11.30 fold or %. The “Stat1 fold increase over or percent reduction vs vehicle control” value (150 mg/kg BIDx1, […]) was 1.20 ± 0.33 fold or %, the “Tbk1 fold increase over or percent reduction vs vehicle control” value (150 mg/kg BIDx1, […]) was 1.03 ± 0.18 fold or % and the “Tlr1 fold increase over or percent reduction vs vehicle control” value (150 mg/kg BIDx1, […]) was 1.33 ± 0.37 fold or %. The “Tlr2 fold increase over or percent reduction vs vehicle control” value (150 mg/kg BIDx1, […]) was 1.05 ± 0.08 fold or %, the “Tlr3 fold increase over or percent reduction vs vehicle control” value (150 mg/kg BIDx1, […]) was 1.02 ± 0.15 fold or % and the “Tlr4 fold increase over or percent reduction vs vehicle control” value (150 mg/kg BIDx1, […]) was 1.04 ± 0.09 fold or %. The “Tlr6 fold increase over or percent reduction vs vehicle control” value (150 mg/kg BIDx1, […]) was 0.43 ± 6.189 fold or %, the “Tlr9 fold increase over or percent reduction vs vehicle control” value (150 mg/kg BIDx1, […]) was 1.29 ± 0.19 fold or % and the “Tnf fold increase over or percent reduction vs vehicle control” value (150 mg/kg BIDx1, […]) was 1.12 ± 0.27 fold or %. For the same compound, the “Tnfaip3 fold increase over or percent reduction vs vehicle control” value (150 mg/kg BIDx1, […]) was 11.08 ± 10.07 fold or %, the “Tnfrsf1a fold increase over or percent reduction vs vehicle control” value (150 mg/kg BIDx1, […]) was 17.69 ± 12.43 fold or % and the “Tnfrsf1b fold increase over or percent reduction vs vehicle control” value (150 mg/kg BIDx1, […]) was 1.08 ± 0.19 fold or %. The “Tnfrsf10b fold increase over or percent reduction vs vehicle control” value (150 mg/kg BIDx1, […]) was 1.19 ± 15.33 fold or %, the “Tnfsf10 fold increase over or percent reduction vs vehicle control” value (150 mg/kg BIDx1, […]) was 1.18 ± 0.41 fold or % and the “Tnfsf14 fold increase over or percent reduction vs vehicle control” value (150 mg/kg BIDx1, […]) was 1.09 ± 0.34 fold or %. The “Tollip fold increase over or percent reduction vs vehicle control” value (150 mg/kg BIDx1, […]) was 13.73 ± 7.04 fold or %, the “Tradd fold increase over or percent reduction vs vehicle control” value (150 mg/kg BIDx1, […]) was 1.02 ± 0.22 fold or % and the “Traf2 fold increase over or percent reduction vs vehicle control” value (150 mg/kg BIDx1, […]) was 1.01 ± 0.11 fold or %. The “Traf3 fold increase over or percent reduction vs vehicle control” value (150 mg/kg BIDx1, […]) was 17.66 ± 4.06 fold or %, the “Traf5 fold increase over or percent reduction vs vehicle control” value (150 mg/kg BIDx1, […]) was 1.10 ± 0.12 fold or % and the “Traf6 fold increase over or percent reduction vs vehicle control” value (150 mg/kg BIDx1, […]) was 12.35 ± 5.34 fold or %. For the same compound, the “Zap70 fold increase over or percent reduction vs vehicle control” value (150 mg/kg BIDx1, […]) was 2.40 ± 0.39 fold or %, the “Ccl2 mRNA downregulation” value (24 h) was 57.69% and the “Csf2 mRNA downregulation” value (24 h) was 61.29%. For the same compound, the “Egfr mRNA downregulation” value (24 h) was 28.45%, the “Fas1 mRNA downregulation” value (24 h) was 31.85% and the “Ifnγ mRNA downregulation” value (24 h) was 35.82%. The “Il1α mRNA downregulation” value (24 h) was 13.50%, the “Il1β mRNA downregulation” value (24 h) was 63.25% and the “Ccl2 mRNA downregulation” value (48 h) was 67.28%. The “Csf2 mRNA downregulation” value (48 h) was 62.24%, the “Egfr mRNA downregulation” value (48 h) was 24.42% and the “Ifnγ mRNA downregulation” value (48 h) was 43.46%. For the same compound, the “Il1α mRNA downregulation” value (48 h) was 28.88%, the “Il1β mRNA downregulation” value (48 h) was 18.73% and the “Ccl2 mRNA downregulation” value (72 h) was 52.53%. For the same compound, the “Fas1 mRNA downregulation” value (72 h) was 42.85%, the “Ifnγ mRNA downregulation” value (72 h) was 22.04% and the “Il1α mRNA downregulation” value (72 h) was 63.60%. For the same compound, the “Il1β mRNA downregulation” value (72 h) was 84.09% and the “Egfr mRNA downregulation” value ([…]) was 41.90%.
